Source: PubChem BioAssay (NCI)
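Each compound was tested at five concentrations against cells in 96-well plates for 48 hours. TGI denotes the concentration required for complete inhibition of growth.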

How the values were obtained:
Assay in all cases: NCI tumour cell line growth inhibition, 48 h
XF 498 CNS = tested on: XF 498 CNS
KM20L2 colon = tested on: KM20L2 colon
M19-MEL melanoma = tested on: M19-MEL melanoma
HOP-18 NSCLC = tested on: HOP-18 NSCLC
DMS 114 small cell lung = tested on: DMS 114 small cell lung
DLD-1 colon = tested on: DLD-1 colon
LXFL 529 NSCLC = tested on: LXFL 529 NSCLC
P388 leukemia = tested on: P388 leukemia
P388/ADR leukemia = tested on: P388/ADR leukemia
SN12K1 renal = tested on: SN12K1 renal

| SMILES | TGI (XF 498 CNS) [µM] | TGI (KM20L2 colon) [µM] | TGI (M19-MEL melanoma) [µM] | TGI (HOP-18 NSCLC) [µM] | TGI (DMS 114 small cell lung) [µM] | TGI (DLD-1 colon) [µM] | TGI (LXFL 529 NSCLC) [µM] | TGI (P388 leukemia) [µM] | TGI (P388/ADR leukemia) [µM] | TGI (SN12K1 renal) [µM] |
| --- | --- | --- | --- | --- | --- | --- | --- | --- | --- | --- |
| CN(C)c1ccc(/C=C/C(=O)O)cc1 | > 100 | > 100 | > 100 | > 100 | > 100 | > 100 | > 100 |  |  |  |
| COc1cccc(-c2nccc3c(OCc4ccccc4)c(OC)c(OC)cc23)c1 | > 100 | > 100 | > 100 |  | > 100 | > 100 | > 100 |  |  |  |
| C[n+]1c2ccccc2c(/C=N\NS(=O)(=O)c2ccc(Cl)cc2)c2ccccc21 | > 100 | > 100 | > 100 |  | > 100 | > 100 |  |  |  |  |
| CCN(CC)CCOC(=O)Cc1cccc2c(=O)cc(-c3ccccc3)oc12 | 82.6 | > 214 | > 223 | > 126 | 137 | > 195 |  | > 625 | > 625 | 127 |
